The values that follow come from patent US7141676B1, “Water soluble multi-biotin-containing compounds” (University of Washington, priority 1996, dated 2006).

By solubility is commonly meant how much of the substance goes into solution per volume. The low end stands for little dissolved substance, the high end for much dissolved substance.

For series [1] the following is noted: neutral pH and ambient temperature; cited from earlier work.
A short description of series [2]: Water solubility (dissolve in water, stand about 24 hours, centrifuge, HPLC of aqueous layer). It counts as physicochemical. The following applies: pH 7, water, thermodynamic from solid, neutral pH and ambient temperature. The text has this: The solubility of biotin moieties in aqueous media is enhanced according to the present invention by attaching a water-soluble linker moiety, typically through the carboxylate group of the biotin. Water-soluble linker moieties, L, according to the present invention, compromise any linker moiety that, when conjugated or coupled (e.g., covalently bonded) to a biotin moiety and the cross-linker, C, increases the water solubility of the biotin-containing compound. […] Dissolving the compound in water, stirring the solution, and allowing the solution to stand at room temperature for about 24 hours determines solubility. The solution then is centrifuged and the resultant aqueous layer analyzed using high performance liquid chromatography (“HPLC”). The HPLC analysis is conducted with a gradient using acetonitrile or methanol and water as the solvent mixture on a reversed-phase column.

The target in the next series is T1, streptavidin (Streptomyces avidinii, UniProt P22629).
T1 construct: purchased Pierce
The series can be described thus: Streptavidin cross-linking with biotin compounds on streptavidin coated polystyrene plate using 125I labeled streptavidin (Example 7). It counts as binding. Conditions: 100 pmol biotin compound, 25 pmol 125I streptavidin per well, up to 4 alternating additions. From the text: This experiment was designed to test streptavidin cross-linking with biotin monomer, biotin dimers comprising water-soluble linkers, and biotin moiety trimers comprising water-soluble linkers. Each of the biotin dimers and trimers used experimentally was water-soluble. […] The biotin dimers used herein are structures 28, 29, and 30. The trimers used herein are structures 23 (page 26), 24 (page 26), and 31. The biotin monomer used herein is the N-[13-(p-iodobenzamido)4,7,10-trioxatridacanyl]biotinamide.
A Reacti-Bind Streptavidin Coated Polystyrene Strip Place (Pierce) was washed with 100 mM PBS prior to use. To lane one (12-wells) was added 100 μL PBS. To lanes 2–7 were added 100 pmol of biotin dimer or biotin trimer to be tested in 100 μL PBS. Lane 8 was treated in the same manner with 100 pmol of biotin monomer. The plate then was incubated at 37° C. with shaking for 10 minutes. All the wells then were emptied and rinsed with 100 μL PBS. The PBS was removed and 25 pmol of ^125I labeled streptavidin (specific activity of 1 μCi/ug) in 100 μL PBS was added to each well. […]
The first 9 wells in each lane were then filled with 100 μL PBS and the remaining 3 wells in each lane were filled with 100 μL of their respective dimer or trimer. […] The amount of activity remaining in each well was determined as a percentage of the highest initial streptavidin binding.

T1 sequence (P22629 25-183, species assumed): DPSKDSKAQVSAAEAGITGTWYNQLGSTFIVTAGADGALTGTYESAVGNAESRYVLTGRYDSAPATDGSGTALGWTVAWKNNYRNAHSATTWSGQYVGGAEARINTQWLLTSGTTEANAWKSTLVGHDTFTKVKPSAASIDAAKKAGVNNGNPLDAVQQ

Turning to `O=C(O)CCCC[C@@H]1SC[C@@H]2NC(=O)N[C@@H]21` [biotin], in series [1], the solubility in water entry was “approximately 0.2 mg/mL”. With `CC(CC(=O)NCCCOCCOCCOCCCNC(=O)c1cc(C(=O)NCCCOCCOCCOCCCNC(=O)CC(C)NC(=O)CCCCC2SCC3NC(=O)NC32)cc(C(=O)NCCCOCCOCCOCCCNC(=O)CC(C)NC(=O)CCCCC2SCC3NC(=O)NC32)c1)NC(=O)CCCCC1SCC2NC(=O)NC21` (centres unmarked) [structure 31], in series [2], the solubility is above 200 µg/mL. Still for that read-out and setting: next, `O=C(CCCCC1SCC2NC(=O)NC21)NCCOCCONC(=O)CCCCC1SCC2NC(=O)NC21` (centres unmarked) [structure 28]: above 200 µg/mL. On the same count and under the same terms, under `O=C(CCCCC1SCC2NC(=O)NC21)NCCCOCCOCCOCCCNC(=O)c1cc(C(=O)NCCCOCCOCCOCCCNC(=O)CCCCC2SCC3NC(=O)NC32)cc(C(=O)NCCCOCCOCCOCCCNC(=O)CCCCC2SCC3NC(=O)NC32)c1` (centres unmarked) [structure 23] stands above 200 µg/mL.

`O=C(CCCCC1SCC2NC(=O)NC21)NCCCOCCOCCOCCNC(=O)c1cc(C(=O)NCCOCCOCCNC(=O)CCCCC2SCC3NC(=O)NC32)cc(C(=O)NCCOCCOCCNC(=O)CCCCC2SCC3NC(=O)NC32)c1` (centres unmarked) [structure 24] had a solubility in series [2] above 200 µg/mL. As for `O=C(CCCC[C@@H]1SC[C@@H]2NC(=O)N[C@@H]21)NCCCOCCOCCOCCCNC(=O)c1ccc(I)cc1` [biotin monomer, N-[13-(p-iodobenzamido)4,7,10-trioxatridacanyl]biotinamide], the “streptavidin binding as a function of sequential biotin compound additions (FIG. 1)” value at streptavidin is “Neither the biotin monomer nor any of the biotin dimers tested demonstrated appreciable increases in streptavidin binding”. With `O=C(CCCCC1SCC2NC(=O)NC21)NCCCOCCOCCOCCCNC(=O)CCCCC1SCC2NC(=O)NC21` (centres unmarked) [structure 29], the solubility in series [2] was above 200 µg/mL. Still for that read-out and setting: under `CC(CC(=O)NCCCOCCOCCOCCCNC(=O)CC(C)NC(=O)CCCCC1SCC2NC(=O)NC21)NC(=O)CCCCC1SCC2NC(=O)NC21` (centres unmarked) [structure 30] stands above 200 µg/mL.
